Test results taken from patent US20160002297A1, “THERAPEUTIC AGENTS” (NATIONAL UNIVERSITY OF SINGAPORE, priority 2013, published 2016).
Positions of bridges follow the written chain, without caps; N, C: chain ends. Residues, ends and D or L forms follow the SMILES beside them.

How the values were obtained:
HUVECs = assay: Tube formation assay on Matrigel; type: cell-based, human
Experimental: HUVECs (1×10^4) were pre-treated with peptides of various concentrations for 30 min before being plated onto the polymerized Matrigel (Millipore, USA) in 15-well μ-slide (Ibidi, Germany). After 4-6 h, capillary network was documented using Zeiss Axiovert200 inverted microscope (Maple Grove, Minn., USA). Tube length was quantified by measuring the length of branches in representative fields using ImageJ software. Plots represented the mean of 3 wells of tubular length in 15-well μ-slide (t SEM).

B16F10 melanoma = assay: Mouse tumorigenesis: subcutaneous B16F10 melanoma, intravenous treatment from day 0; type: in vivo
Experimental: FIG. 4 Recombinant ISM and ISM derived cRKD peptide inhibit B16F10 tumour growth in vivo. A. Tumour growth curve in mice. X-axis represents the days after 5×10^5 tumour cell inoculation. Groups consisted of control mice receiving no treatment, recombinant ISM, cRKD peptide and its control-cyclic RAA peptide, given in six doses of 250 μg/mouse through tail vein injection on days 0, 2, 4, 6, 8, and 10 (5 mice in each group, each mice with one tumour). **: p<0.01,*: p<0.05, n=5. B. Tumour weight at the end of the experiment (14 days after tumour cell inoculation). C. Recombinant ISM and cRKD peptide inhibits B16F10 tumour growth. […] Paraffin sections of tumors from mice groups treated by control, ISM, cRAA and cRKD peptides were probed for microvessel density, tumor cell proliferation and apoptosis through immunofluoresence staining using anti-CD31 (A), anti-PCNA (B) and TUNEL staining (C) respectively. Representative photos are shown. (D) Quantification of microvessel density. Microvessel density is the number of microvessels per microscopic field. (E) Quantification of cell proliferation in tumor sample. Cell proliferation is presented as the percentage of PCNA positive cells out of the total number of cells (DAPI positive cells) in the microscopic field. (F) Quantification of apoptosis in tumor. Apoptosis is quantified as the percentage of TUNEL positive cells out of the total number of cells (DAPI positive cells) in the microscopic field. Plots represent the mean of 3 fields per section, 3 sections per tumor and 2 tumors per group (±SEM). ** P≦0.01, * P≦0.05; Adult 8-week-old female C57BL/6J mice were used in this study. Animal care and experimentation was carried out under the institutional guidelines issued by the local institutional animal care and use committee (IACUC; protocol 066/12). 5×10^5 B16F10 cells in 0.1 ml PBS were injected subcutaneously into the dorsal left flank of the mouse. Twenty mice were assigned into 4 different groups consisted of control mice receiving no treatment, recombinant ISM, cyclic RKD peptide and its peptide control-cyclic RAA peptide, given in six doses of 250 μg through tail vein injection on days 0, 2, 4, 6, 8, and 10 (5 mice in each group, each mice with one tumor). Health status of the mice was monitored over two weeks and visible tumor size were measured daily by calipers after 8 days until the end point (day 14). Tumor volume was calculated using the following formula: 0.52×length×(width)^2 mm^3, where the largest dimension of the tumor is considered as the length and the width is the perpendicular dimension. On day 14, mice were sacrificed, and their dorsal flank was opened and photographed to exam the vascularization. Then tumors were excised and weighed followed by either fixing in 4% paraformaldehyde for sectioning or snap-freezing in liquid nitrogen for further analysis. Paraffin-embedded tissue sections of 5 μm were deparaffinized by heating at 60° C. for 7 minutes before deparaffinizing in histoclear followed by the rehydration in graded series of alcohol (100%, 90%, 80%, and 70% ethanol in ddH2O) and finally in PBS for 5 minutes. Antigen retrieval was done in a bench-top 2100-Retriever according to the protocol of the manufacturer (Electron Microscopy Sciences, Hatfield, Pa.). The sections were blocked with 3% bovine serum albumin (BSA) in a humidified chamber for 1 hour at room temperature followed by overnight incubation with the anti-CD31 (Santa Cruz Biotechnology, Santa Cruz, Calif.), anti-PCNA antibody (Santa Cruz Biotechnology), anti-GRP78 antibody (Santa Cruz Biotechnology), or anti-His tag antibody (Santa Cruz Biotechnology) at 4° C. The following day, unbound antibody was washed with 1×PBS containing 0.1% Tween-20 (1×PBST) and incubated with the corresponding Alexafluor 568 secondary antibodies (Life Technologies) for 1.5 hours at 37° C. Sections were rinsed again and incubated for 10 minutes with DAPI at 1 μg/mL to visualize the DNA in the cell nucleus. […]

ECs = assay: Cell attachment (EC adhesion) assay; type: cell-based; settings: peptide coated on plastic surface
Experimental: 96-well plates were coated with 50 μl of 1 μM ISM at 4° C. overnight. Nonspecific binding sites were blocked with 1% BSA for 2 h at 37° C. ECs were harvested and incubated in CSC basal medium containing 4 μg/ml neutralizing antibodies or control IgG for 30 min. 2[…]104 cells were plated to each well and allowed to attach for 60 min at 37° C. Attached cells were fixed by 10% formalin and stained with 0.2% crystal violet. Absorbed crystal violet was extracted by 10% acetic acid and quantified by measuring the absorbance of eluted dye at 595 nm with a microplate reader.

For `N=C(N)NCCC[C@@H]1NC(=O)[C@@H](N)CSSC[C@@H](C(=O)O)NC(=O)[C@H](CC(=O)O)NC(=O)[C@H](CCCCN)NC1=O` [cRKD, Cyclic CRKDC peptide] (H-CRKDC-OH; disulfide 1-5; N-terminus and C-terminus assumed), the “anti-angiogenic activity at 1 μM” value (HUVECs; 1 μM peptide) was “inhibited angiogenesis with similar potency”, the “inhibition of EC tube-like structure formation on Matrigel” value (HUVECs; dose-dependence) was “does-dependently inhibited EC tube-like structure formation” and the tumor growth (B16F10 melanoma; 250 μg/mouse intravenous every 2 days, days 0-10, subcutaneous B16F10) was “significantly suppressed tumor growth”. For the same compound, the “vascularization (blood vessels supplying the tumor)” value (B16F10 melanoma; 250 μg/mouse intravenous, day 14) was “obviously reduced”, the “tumor angiogenesis, tumor cell proliferation and tumor cell apoptosis” value (B16F10 melanoma; immunofluorescence of tumor sections) was “suppress tumor angiogenesis, tumor cell proliferation and induce tumor cell apoptosis” and the “suppression of subcutaneous mouse melanoma growth” value (B16F10 melanoma; intravenous injection) was 75%. The “increase of apoptosis in the tumor tissue (TUNEL)” value (B16F10 melanoma; quantitation of tumor sections) was “more than 3 fold”, the “suppression of tumor angiogenesis (tumor vessel density)” value (B16F10 melanoma; quantitation of tumor sections) was “more than 3 fold” and the “suppression of tumor cell proliferation (PCNA)” value (B16F10 melanoma; quantitation of tumor sections) was “more than 2 fold”. The “apoptosis of tumor cells and tumor ECs (CD31/TUNEL double staining)” value (B16F10 melanoma; tumor sections, compared to controls) was “both tumor cells as well as tumor ECs became apoptotic”, the “tumor vessel density (anti-CD31 immunofluorescence)” value (B16F10 melanoma; tumor tissue sections) was “obvious reduction of tumor vessel density” and the “EC attachment and adhesion” value (ECs) was “mediated EC attachment and adhesion”.
